Laboratory results published in article PMC8869984, “Multifunctional Silver(I) Complexes with Metronidazole Drug Reveal Antimicrobial Properties and Antitumor Activity against Human Hepatoma and Colorectal Adenocarcinoma Cells” (Cancers, 2022).
pIC50: −log10 of the molar value.

What was measured:
[1] = test system: E. coli ATCC 25922; test: micro-dilution broth method (MIC, MBC); format: cell-based, Escherichia coli
[2] = test system: C. jejunii ATCC 33291; test: micro-dilution broth method (MIC, MBC); format: cell-based, Campylobacter jejunii
[3] = test system: K. pneumoniae ATCC 13883; test: micro-dilution broth method (MIC, MBC); format: cell-based, Klebsiella pneumoniae
[4] = test system: S. typhimurium ATCC 14028; test: micro-dilution broth method (MIC, MBC); format: cell-based, Salmonella Typhimurium
[5] = test system: B. fragilis ATCC 10240; test: micro-dilution broth method (MIC, MBC); format: cell-based, Bacteroides fragilis
[6] = test system: P. intermedia ATCC 25611; test: micro-dilution broth method (MIC, MBC); format: cell-based
[7] = test system: M. luteus ATCC 10240; test: micro-dilution broth method (MIC, MBC); format: cell-based, Micrococcus luteus
[8] = test system: E. faecalis ATCC 29212; test: micro-dilution broth method (MIC, MBC); format: cell-based, Enterococcus faecalis
[9] = test system: HepG2 cells; test: NRU assay (lysosomal activity), 72 h exposure; format: cell-based, human
Experimental: The human hepatoma (HepG2) and colorectal adenocarcinoma (Caco-2) cells were purchased from the American Type Culture Collection: ATCC HB-8065 and ATCC HTB-37, respectively. These cells were cultured in Minimum Essential Medium Eagle (MEME) (ATCC). The murine fibroblasts cell line (Balb/c 3T3 clone A31) (gift from the Department of Swine Diseases of the National Veterinary Research Institute in Pulawy) was cultured in Dulbecco’s Modified Eagle Medium (DMEM) (ATCC). The media were supplemented with 10% BCS (Balb/c 3T3), 10% FBS (HepG2), 20% FBS (Caco-2), 1% L-glutamine, 1% antibiotic solution. The cells were maintained in 75 cm^2 cell culture flasks (NUNC) in a humidified incubator at 37 °C in an atmosphere of 5% CO2. The medium was refreshed every two or three days, and the cells were trypsinized by 0.25% trypsin–0.02% EDTA after reaching 70–80% confluence. Single cell suspensions were prepared and adjusted to a density of 2 × 10^5 cell/mL^−1 (HepG2), 1 × 10^5 cell/mL^−1 (Caco-2) and 5 × 10^4 cell/mL^−1 (Balb/c 3T3). The cell suspension was transferred to 96-well plates (100 µL/well) and incubated for 24 h before the exposure to the studied compounds. Stock solutions of ligands and metal complexes were prepared in sterile water and diluted with culture medium to obtain a concentration range from 0.1 to 10 µM. The final concentration of sterile water was 0.1% in the medium. […] As a negative control, cultured cells were grown in the absence of studied compounds. Each concentration was tested in six replicates in three independent experiments. Cytotoxicity was assessed after 72 h of exposure of the cells to compounds. The medium was not changed during the incubation time.
This method is based on staining living cells with neutral red, which readily diffuses through the plasma membrane and accumulates in lysosomes. […] After 10 min of shaking, the absorbance of the dissolved NR was measured using a Synergy HTX multi-mode reader (BioTek® Instruments Inc., Winooski, VT, USA) at 540 nm using a blank as a reference. Cytotoxicity was expressed as a percentage of the negative control. […]

[10] = test system: F. nucleatum ATCC 25586; test: micro-dilution broth method (MIC, MBC); format: cell-based, Fusobacterium nucleatum
[11] = test system: P. aeruginosa ATCC 9027; test: micro-dilution broth method (MIC, MBC); format: cell-based, Pseudomonas aeruginosa
[12] = test system: A. israeli ATCC 10049; test: micro-dilution broth method (MIC, MBC); format: cell-based, Actinomyces israelii
[13] = test system: S. epidermidis ATCC 12228; test: micro-dilution broth method (MIC, MBC); format: cell-based, Staphylococcus epidermidis
[14] = test system: B. subtilis ATCC 6633; test: micro-dilution broth method (MIC, MBC); format: cell-based, Bacillus subtilis
[15] = test system: H. pylori ATCC 43504; test: micro-dilution broth method (MIC, MBC); format: cell-based
[16] = test system: V. parvula ATCC 10790; test: micro-dilution broth method (MIC, MBC); format: cell-based, Veillonella parvula
[17] = E. coli ATCC 25922, value in brackets
[18] = C. jejunii ATCC 33291, value in brackets
[19] = K. pneumoniae ATCC 13883, value in brackets
[20] = S. typhimurium ATCC 14028, value in brackets
[21] = B. fragilis ATCC 10240, value in brackets
[22] = P. intermedia ATCC 25611, value in brackets
[23] = M. luteus ATCC 10240, value in brackets
[24] = E. faecalis ATCC 29212, value in brackets
[25] = F. nucleatum ATCC 25586, value in brackets
[26] = P. aeruginosa ATCC 9027, value in brackets
[27] = A. israeli ATCC 10049, value in brackets
[28] = S. epidermidis ATCC 12228, value in brackets
[29] = B. subtilis ATCC 6633, value in brackets
[30] = H. pylori ATCC 43504, value in brackets
[31] = V. parvula ATCC 10790, value in brackets

Cc1ncc([N+](=O)[O-])n1CCO.Cc1ncc([N+](=O)[O-])n1CCO.Cc1ncc([N+](=O)[O-])n1CCO.Cc1ncc([N+](=O)[O-])n1CCO.O=S(=O)([O-])[O-].[Ag+].[Ag+] [[Ag(MTZ)2]2SO4]
MBC ([1]; E. coli ATCC 25922): 31.3 mg/L | MIC ([1]; E. coli ATCC 25922): 15.6 mg/L | MBC [1, 17]: 0.03 µM/mL | MIC [1, 17]: 0.014 µM/mL | MBC ([2]; C. jejunii ATCC 33291): 500 mg/L | MBC [2, 18]: 0.46 µM/mL | MIC [2, 18]: 0.23 µM/mL | MIC ([2]; C. jejunii ATCC 33291, listed as [Ag(MTZ)2]2SO4·5H2O): 250 mg/L | MBC ([3]; K. pneumoniae ATCC 13883): 31.3 mg/L | MIC ([3]; K. pneumoniae ATCC 13883): 15.6 mg/L | MBC [3, 19]: 0.03 µM/mL | MIC [3, 19]: 0.014 µM/mL | MBC ([4]; S. typhimurium ATCC 14028): 62.5 mg/L | MIC ([4]; S. typhimurium ATCC 14028): 15.6 mg/L | MBC [4, 20]: 0.06 µM/mL | MIC [4, 20]: 0.014 µM/mL | MBC ([5]; B. fragilis ATCC 10240): 0.98 mg/L | MIC ([5]; B. fragilis ATCC 10240): 0.24 mg/L | MBC [5, 21]: 0.0009 µM/mL | MIC [5, 21]: 0.0002 µM/mL | MBC ([6]; P. intermedia ATCC 25611): 15.6 mg/L | MIC ([6]; P. intermedia ATCC 25611): 0.98 mg/L | MBC [6, 22]: 0.014 µM/mL | MIC [6, 22]: 0.0009 µM/mL | MIC ([7]; M. luteus ATCC 10240): 7.8 mg/L | MBC [7, 23]: 0.12 µM/mL | MIC [7, 23]: 0.007 µM/mL | MBC ([8]; E. faecalis ATCC 29212): 62.5 mg/L | MIC ([8]; E. faecalis ATCC 29212): 31.3 mg/L | MBC [8, 24]: 0.06 µM/mL | MIC [8, 24]: 0.03 µM/mL | lowest concentration with significant (p ≤ 0.05) effect ([9]; Figure 6): 5.0 µM | MBC ([10]; F. nucleatum ATCC 25586): 0.49 mg/L | MIC ([10]; F. nucleatum ATCC 25586): 0.49 mg/L | MBC [10, 25]: 0.0004 µM/mL | MIC [10, 25]: 0.0004 µM/mL | MBC ([11]; P. aeruginosa ATCC 9027): 15.6 mg/L | MIC ([11]; P. aeruginosa ATCC 9027): 7.8 mg/L | MBC [11, 26]: 0.014 µM/mL | MIC [11, 26]: 0.008 µM/mL | MBC ([12]; A. israeli ATCC 10049): 15.6 mg/L | MIC ([12]; A. israeli ATCC 10049): 7.8 mg/L | MBC [12, 27]: 0.014 µM/mL | MIC [12, 27]: 0.007 µM/mL | MBC ([13]; S. epidermidis ATCC 12228): 15.6 mg/L | MIC ([13]; S. epidermidis ATCC 12228): 7.8 mg/L | MBC [13, 28]: 0.014 µM/mL | MIC [13, 28]: 0.007 µM/mL | MBC ([14]; B. subtilis ATCC 6633): 15.6 mg/L | MIC ([14]; B. subtilis ATCC 6633): 15.6 mg/L | MBC [14, 29]: 0.014 µM/mL | MIC [14, 29]: 0.014 µM/mL | MBC ([15]; H. pylori ATCC 43504): 31.3 mg/L | MIC ([15]; H. pylori ATCC 43504): 7.8 mg/L | MBC [15, 30]: 0.03 µM/mL | MIC [15, 30]: 0.008 µM/mL | MBC ([16]; V. parvula ATCC 10790): 3.9 mg/L | MIC ([16]; V. parvula ATCC 10790): 3.9 mg/L | MBC [16, 31]: 0.004 µM/mL | MIC [16, 31]: 0.004 µM/mL

O=S(=O)([O-])[O-].[Ag+].[Ag+] [Ag2SO4, silver sulfate]
MBC ([1]; E. coli ATCC 25922): 62.5 mg/L | MIC ([1]; E. coli ATCC 25922): 62.5 mg/L | MBC [1, 17]: 0.2 µM/mL | MIC [1, 17]: 0.2 µM/mL | MBC ([2]; C. jejunii ATCC 33291): > 1000 mg/L | MIC ([2]; C. jejunii ATCC 33291): 1000 mg/L | MBC [2, 18]: > 3.2 µM/mL | MIC [2, 18]: 3.2 µM/mL | MBC ([3]; K. pneumoniae ATCC 13883): 31.3 mg/L | MIC ([3]; K. pneumoniae ATCC 13883): 31.3 mg/L | MBC [3, 19]: 0.1 µM/mL | MIC [3, 19]: 0.1 µM/mL | MBC ([4]; S. typhimurium ATCC 14028): 250 mg/L | MIC ([4]; S. typhimurium ATCC 14028): 31.3 mg/L | MBC [4, 20]: 0.8 µM/mL | MIC [4, 20]: 0.1 µM/mL | MBC ([5]; B. fragilis ATCC 10240): 1000 mg/L | MIC ([5]; B. fragilis ATCC 10240): 250 mg/L | MBC [5, 21]: 3.2 µM/mL | MIC [5, 21]: 0.8 µM/mL | MBC ([6]; P. intermedia ATCC 25611): 7.8 mg/L | MIC ([6]; P. intermedia ATCC 25611): 7.8 mg/L | MBC [6, 22]: 0.025 µM/mL | MIC [6, 22]: 0.025 µM/mL | MBC ([7]; M. luteus ATCC 10240): 125 mg/L | MIC ([7]; M. luteus ATCC 10240): 15.6 mg/L | MBC [7, 23]: 0.4 µM/mL | MIC [7, 23]: 0.05 µM/mL | MBC ([8]; E. faecalis ATCC 29212): 125 mg/L | MIC ([8]; E. faecalis ATCC 29212): 31.3 mg/L | MBC [8, 24]: 0.4 µM/mL | MIC [8, 24]: 0.1 µM/mL | pIC50 ([9]; mean ± SD, n = 3): < 5.00 | MBC ([10]; F. nucleatum ATCC 25586): 31.3 mg/L | MIC ([10]; F. nucleatum ATCC 25586): 31.3 mg/L | MBC [10, 25]: 0.1 µM/mL | MIC [10, 25]: 0.1 µM/mL | MBC ([11]; P. aeruginosa ATCC 9027): 125 mg/L | MIC ([11]; P. aeruginosa ATCC 9027): 62.5 mg/L | MBC [11, 26]: 0.4 µM/mL | MIC [11, 26]: 0.2 µM/mL | MBC ([12]; A. israeli ATCC 10049): 15.6 mg/L | MIC ([12]; A. israeli ATCC 10049): 0.98 mg/L | MBC [12, 27]: 0.05 µM/mL | MIC [12, 27]: 0.003 µM/mL | MBC ([13]; S. epidermidis ATCC 12228): 31.3 mg/L | MIC ([13]; S. epidermidis ATCC 12228): 15.6 mg/L | MBC [13, 28]: 0.1 µM/mL | MIC [13, 28]: 0.05 µM/mL | MBC ([14]; B. subtilis ATCC 6633): 31.3 mg/L | MIC ([14]; B. subtilis ATCC 6633): 31.3 mg/L | MBC [14, 29]: 0.1 µM/mL | MIC [14, 29]: 0.1 µM/mL | MBC ([15]; H. pylori ATCC 43504): 15.6 mg/L | MIC ([15]; H. pylori ATCC 43504): 15.6 mg/L | MBC [15, 30]: 0.05 µM/mL | MIC [15, 30]: 0.05 µM/mL | MBC ([16]; V. parvula ATCC 10790): 62.5 mg/L | MIC ([16]; V. parvula ATCC 10790): 62.5 mg/L | MBC [16, 31]: 0.2 µM/mL | MIC [16, 31]: 0.2 µM/mL
